# Reference: article PMC4405350, “From Broad-Spectrum Biocides to Quorum Sensing Disruptors and Mussel Repellents: Antifouling Profile of Alkyl Triphenylphosphonium Salts” (PLoS ONE, 2015)
# Legend:
# [1] = tested on: Cellulophaga lytica CECT 5014; experiment: Marine bacteria growth inhibition (broth microdilution, OD625); type: cell-based; conditions: Cellulophaga lytica, CECT5014; growth inhibition, 24 h, 30 °C, three replicates; read-out: IC50 C. lytica
# Protocol: (§1) All the biological assays were run by triplicate. […] For the active products, serial dilutions were performed to calculate the half-maximal inhibitory concentrations (IC50) or the minimal inhibitory concentrations (MIC). Unless otherwise stated, the test concentrations were 100, 50, 25, 10, 5, 2.5, 1, 0.5 and 0.1 μM. Dose-response curves were adjusted with GraphPad Prism 5 software using a four-parameter non-linear regression model.
# (§2) Growth inhibition was assessed in Marine Broth (Conda) according to CLSI guidelines for broth microdilution susceptibility testing. The incubation time was 24 h and the incubation temperature was 30 °C.
# [2] = tested on: Cobetia marina CECT 4278; experiment: as above; type: cell-based; conditions: Cobetia marina, CECT4278; growth inhibition, 24 h, 30 °C, three replicates; read-out: IC50 C. marina
# Protocol: as §1, §2
# [3] = tested on: Pseudoalteromonas atlantica CECT 579; experiment: as above; type: cell-based; conditions: Pseudoalteromonas atlantica, CECT579; growth inhibition, 24 h, 30 °C, three replicates; read-out: IC50 P. atlantica
# Protocol: as §1, §2
# [4] = tested on: Shewanella algae CECT 5021; experiment: as above; type: cell-based; conditions: Shewanella algae, CECT5021; growth inhibition, 24 h, 30 °C, three replicates; read-out: IC50 S. algae
# Protocol: as §1, §2
# [5] = tested on: Vibrio alginolyticus CECT 521; experiment: as above; type: cell-based; conditions: Vibrio alginolyticus, CECT521; growth inhibition, 24 h, 30 °C, three replicates; read-out: IC50 V. alginolyticus
# Protocol: as §1, §2
# [6] = tested on: Vibrio anguillarum CECT 4347; experiment: as above; type: cell-based; conditions: Vibrio anguillarum, CECT4347; growth inhibition, 24 h, 30 °C, three replicates; read-out: IC50 V. anguillarum
# Protocol: as §1, §2
# [7] = tested on: Alternaria sp.; experiment: Marine-derived fungi growth inhibition (OD405); type: cell-based; conditions: Alternaria, 120 h; growth inhibition, 5 days, 26 °C; read-out: IC50 Alternaria sp.
# Protocol: as §1
# (§3) Three strains of marine-derived fungi were kindly provided by Dr. Á. Trigos (University of Veracruz, Mexico). The strains were isolated from reef organisms collected from the Veracruz Reef System and identified as Aspergillus sp., Fusarium sp. and Alternaria sp..
# (§4) Fungal strains were cultured in Potato-Dextrose Agar (PDA) supplemented with filtered seawater (FSW) (50% v/v) at 26 °C for 5 days prior to experiments. […] Briefly, fungal inocula were prepared by addition of 5 ml of sterile saline solution to the cultures. Gently swabbing released conidia. […] The plates were incubated for 5 days at 26 °C. The calculation of the half-maximal inhibitory concentrations (IC50) was performed using OD405 as endpoint.
# [8] = tested on: Aspergillus sp.; experiment: Marine-derived fungi growth inhibition (OD405); type: cell-based; conditions: Aspergillus, 120 h; growth inhibition, 5 days, 26 °C; read-out: IC50 Aspergillus sp.
# Protocol: as §1, §3, §4
# [9] = tested on: Gayralia oxysperma spores; experiment: Macroalgal spore germination inhibition; type: cell-based; conditions: 6 days, 19±1 °C
# Protocol: as §1
# To evaluate the effect of the phosphonium salts on the germination of macroalgal spores, Gayralia oxysperma (Kützing) K.L.Vinogradova was selected as model organism. G. oxysperma (Ulotrichales, Chlorophyta) is a cosmopolitan member of the Ulvophyceae. Unlike Ulva species, which produce biflagellate male and female gametes, as well as quadriflagellate spores, G. oxysperma only produces biflagellate spores. This is an advantage as bioassays can be conducted straightforwardly without the need to distinguish between gamete-producing and zoospore-producing plants. […] Fresh fertile fragments were selected and placed in Petri dishes. Spores were then released in Von Stosch Solution (VSS) by the osmotic method. Bioassays were conducted in flat-bottom 96-well plates as described by Chambers and co-workers, with slight modifications. Each well was filled with 50 μl of the appropriate dilution of the products in VSS to which 50 μl of spore inoculum (ca. 2 x 10^5 spores ml^-1) were added. Plates were incubated at 19±1 °C for 6 days. After the incubation time, the bottom of each well was examined for the presence of germinated spores with an inverted microscope. A spore was considered as germinated when the germ tube was visible. The MIC was recorded as the lowest concentration inhibiting spore germination.
# [10] = tested on: V. harveyi BB120 (wild type strain); experiment: Quorum sensing bioassay: bioluminescence; type: cell-based; conditions: Vibrio harveyi, 18 h, read-out: IC50 Luminescence WT
# Protocol: (§5) V. harveyi BB120 (wild type strain), BB170 (luxN::Tn5kan), BB886 (luxPQ::Tn5kan) and BB721 (luxO::Tn5lacZ) were acquired from ATCC. To screen the ability of the compounds to interfere with QS, the test products were serially diluted in 100 μl of Autoinducer Bioassay (AB) medium using white, clear-bottom 96-well microtiter plates (Costar 3610) as assay platform. Aerobic bacterial cultures were incubated overnight (30 °C) and diluted 1:50. One-hundred μl of the diluted cultures were dispensed inside each well in the microtiter plate. That gave a starting cell density of 1–2 x 10^7 cfu ml^-1. The plates were covered with a sterile sealing film. Luminescence and OD600 were monitored every 15 min over 18 h with a multimode plate reader (Perkin-Elmer EnSpire) in order to correlate the effects of the products on both the growth and bioluminescence kinetics.
# (§6) Compounds 3–5 and 7 were evaluated in V. harveyi WT and three mutant strains: BB886 (luxPQ::Tn5Kan), unable to detect AI-2; BB170 (luxN::Tn5Kan), unable to detect HAI-1; and BB721 (luxO::Tn5lacZ), a LuxO null mutant that produces maximal luminescence per cell constitutively. In order to take into account the cumulative effects of the compounds, bioluminescence and growth were measured simultaneously every 15 min over 18 h (Fig 7). Accordingly, IC50 values for bacterial luminescence and growth were obtained by integration of the areas under the curves for each tested dose (Table 3). For clarity of the graphs, error bars has been omitted in Fig 7 and only the mean curves are shown.
# [11] = tested on: V. harveyi BB170 (luxN::Tn5kan); experiment: Quorum sensing bioassay: bioluminescence; type: cell-based; conditions: Vibrio harveyi, 18 h, read-out: IC50 Luminescence BB170
# Protocol: as §5, §6
# [12] = tested on: V. harveyi BB721 (luxO::Tn5lacZ); experiment: Quorum sensing bioassay: bioluminescence; type: cell-based; conditions: Vibrio harveyi, 18 h, read-out: IC50 Luminescence BB721
# Protocol: as §5, §6
# [13] = tested on: V. harveyi BB886 (luxPQ::Tn5kan); experiment: Quorum sensing bioassay: bioluminescence; type: cell-based; conditions: Vibrio harveyi, 18 h, read-out: IC50 Luminescence BB886
# Protocol: as §5, §6
# [14] = tested on: V. harveyi WT and reporter strains; experiment: V. harveyi growth inhibition (OD600); type: cell-based; conditions: Vibrio harveyi, 18 h, read-out: IC50 Growth
# Protocol: as §5, §6
# [15] = in vivo; conditions: in vivo
# Protocol: as §1
# Artemia salina cysts (INVE Aquaculture, Ghent, Belgium) were hatched in brackish water (30 ‰ salinity) at 28 °C with aeration and under constant light. Newly hatched instar I nauplii were harvested for bioassays. Tests were conducted in 96-well plates (15±5 nauplii per well, test volume = 200 μl). The number of dead and alive individuals was recorded after 24 h of incubation at 28 °C and 24-hour photoperiod.
SMILES,IC50 [1] [µM],IC50 [2] [µM],IC50 [3] [µM],IC50 [4] [µM],IC50 [5] [µM],IC50 [6] [µM],IC50 [7] [µM],IC50 [8] [µM],MIC G. oxysperma (lowest concentration inhibiting spore germination) [9] [µM],IC50 [10] [µM],IC50 [11] [µM],IC50 [12] [µM],IC50 [13] [µM],IC50 [14] [µM],LC50 at 24 h [15] [µM]
BrCCCC[P+](c1ccccc1)(c1ccccc1)c1ccccc1 [Compound 4],> 100,> 100,26.4,> 100,> 100,> 100,> 100,> 100,>100,> 500,226,> 500,307,> 500,
CCCCN[P+](c1ccccc1)(c1ccccc1)c1ccccc1 [Compound 5],41.8,> 100,> 100,> 100,> 100,> 100,> 100,> 100,100,> 500,> 500,> 500,> 500,> 500,
CCCCC[P+](c1ccccc1)(c1ccccc1)c1ccccc1 [Compound 7],> 100,> 100,> 100,> 100,> 100,> 100,> 100,> 100,>100,205,129,276,179,> 500,
CCCCCCCCCCCCCCCCCC[P+](c1ccccc1)(c1ccccc1)c1ccccc1 [Compound 17],11.3,> 100,46.1,72.5,> 100,31.8,1.3,10.2,>100,,,,,,< 0.5
CCCCCCCCCCCCCCCCCCC[P+](c1ccccc1)(c1ccccc1)c1ccccc1 [Compound 18],5.3,> 100,> 100,> 100,> 100,> 100,5.3,19.6,>100,,,,,,< 0.5
